The text below walks through data of paper PMC9083324, “Identifying Acute Cardiac Hazard in Early Drug Discovery Using a Calcium Transient High-Throughput Assay in Human-Induced Pluripotent Stem Cell-Derived Cardiomyocytes” (Frontiers in Physiology, 2022).

The subject of data set [1] is hiPSC-CMs (iCell Cardiomyocytes^2). Kind of data set: Ca2+ transient assay (CTCM) with acute cardiac hazard scoring in hiPSC-CMs. The conditions noted are these: for incidence of EADs / prolongation of CTD90: 3 nM.
Method: Cells were pre-plated and seeded in fibronectin-coated 96-well plates at a density suited to form a monolayer and maintained in culture in a stage incubator (37°C, 5% CO2) according to the instructions of the cell provider. […] The beating monolayer was taken from frozen vials iCell Cardiomyocytes^2 (≈5 million cells/vial), which were plated onto three 96-well plates (≈50K/well).
Cells from these lot numbers were from the same donor (Apparently healthy normal, age <18) (according to FUJIFILM Cellular Dynamics).
On the day of the experiment, the culture medium in the 96-well plates containing the monolayers of hiPSC-CMs was replaced with Tyrode’s solution (Sigma, No. T2397) supplemented with 10 mM HEPES together with KCl to yield isokalemic (4.2 mM K^+) conditions.
The Ca^2+-sensitive fluorescence dye Cal-520™ AM (Cat. no.21131; AAT Bioquest) was used to capture the intracellular Ca^2+ transients in hiPSC-CMs. […] Briefly, Cal-520 was incubated for 70 min followed by a wash-out with supplemented Tyrode’s solution and a 30-min recovery before starting the experiments at 37°C. […] Compounds were added automatically using the Functional Drug Screen System (FDSS/µCell; Hamamatsu, Japan) head stage by adding 100 µl of the 2-fold concentrated compound solution to wells with hiPSC-CMs already containing a volume of 100 µl of the experimental solution, reaching the final intended test concentration in 0.1% DMSO.
The spontaneous beating activity of hiPSC-CMs was assessed through measurement of the Ca^2+ fluorescence signal integrated over the whole well. Ten minutes before starting the recordings, the experimental plates were put into the FDSS system for stabilization and a baseline recording was captured for 4 min followed by compound addition. The effect of the compounds was recorded around 30 min after compound addition. The Ca^2+ transient signals were sampled every 16 ms (frame rate of 62.5 Hz) in hiPSC-CMs maintained at 37°C during the acquisition time. […] In addition, beat rate (BR = peak count/min) and amplitude (amp = difference between max. and min of every beat) were measured, and incidence of cellular arrhythmias, e.g., EAD-like activity (considered a surrogate of TdP), cessation of beating (∼ stop beating), and below beating below quantification level (caused by low amplitude of the Ca^2+ transient or by ectopic beat: BBQL) were also recorded (Figures 1B,C).
For all individual experiments, delta percent (Δ%) at 30 min with respect to the baseline value was calculated [e.g., ∆% for CTD90 = (CTD90 30 min-CTD90 0 min)/CTD90 0 min) × 100].
TIs indicate an interval where, with a certain confidence level (1- α = 0.95), a specified proportion (p = 0.90) of a sampled population falls. […] These ΔΔ% net effects were the values obtained after normalization for baseline (Δ% vs. baseline) per well and the aggregated compound-treated wells are vehicle corrected by subtraction with the aggregated Δ% of the corresponding DMSO wells from the same plate [e.g., ΔΔ% = median Δ% drug - median Δ% DMSO]. The categorization was made first for each concentration and then aggregated per compound and test site. […] Similarly, a compound was categorized as decreased if it was in a category “decreased” in at least one of the four concentrations.
The cut-off values are net changes (ΔΔ% changes vs. baseline and vehicle), which are based on the statistical tolerance intervals (TIs) (Δ% changes vs. baseline). TIs indicate an interval where, with a certain confidence level, a specified proportion of a sampled population falls.
For another data set, the system named is IKs. Also noted: method as in Liu et al., 2010. The note with it: ref Liu et al., 2010; cited from earlier work.
The next data set concerns IKr. Also on record: method as in Liu et al., 2010. The note with it: ref Liu et al., 2010; cited from earlier work.
In data set [2] the test system is hiPSC-CMs (iCell Cardiomyocytes). Kind of data set: Ca2+ transient assay (CTCM), lot-to-lot comparison in iCell Cardiomyocytes (non-square cells, Lot 103674). The data set is classed as cell-based, human. As to the method: To investigate lot-to-lot variability in hiPSC-CMs, we tested 19 drugs with known clinical cardiac risk in other lots of iCell Cardiomyocytes^2. Fifty-five reference drugs were tested in iCell Cardiomyocytes^2 -Lot12012, 18 reference drugs were tested in iCell Cardiomyocytes^2 (Lot105091), and 18 reference drugs were tested in iCell Cardiomyocytes (Lot103674) (nonsquare cells).

The mark [3] stands for this setting: updated scoring: 10 points for decrease in beat rate by ≥ −30%.
The mark [4] stands for this setting: similar among the iCell Cardiomyocytes^2 and iCell Cardiomyocytes lots.
Setting [5] is: 3 nM (2-fold fCmax), n = 131 studies.
Setting [6] is: over the tested concentrations (Figure 3).

What is called IC50 is the concentration that gives 50% inhibition.

On to `C[N+](C)(C)CCOC(N)=O` [carbachol], for which, in data set [1] (setting [3]), the hazard score result is recorded as “low”. `Nc1ncnc2c1ncn2[C@@H]1O[C@H](CO)[C@@H](O)[C@H]1O` [adenosine]: the hazard score result in data set [1] (setting [3]) is listed as “low”. As for `CC(C)NCC(O)c1ccc(O)c(O)c1` (stereo not drawn) [Isoproterenol], the “share of studies identified within the low and high hazard zones” value in data set [1] (100 nM (63-fold fCmax), n = 143 studies) is on record as 92%. For the molecule `O=C(c1ccc(OCCN2CCCCC2)cc1)c1c(-c2ccc(O)cc2)sc2cc(O)ccc12` [Raloxifene], the IC50 is 4800 nM with IKs and 1100 nM in the data set with IKr. Besides, the results for the hazard score result in data set [1] (at >2000 folds of fCmax) and in data set [1] (at ∼700–800 folds fCmax) were “red” and “green”, respectively. `CC(C)(C)c1ccc(C(=O)CCCN2CCC(OC(c3ccccc3)c3ccccc3)CC2)cc1` [Ebastine]: the hazard score result in data set [1] (setting [4]) is given as “no hazard”. Consider `CN(CCOc1ccc(NS(C)(=O)=O)cc1)CCc1ccc(NS(C)(=O)=O)cc1` [Dofetilide], for which, in data set [1] (setting [5]), the “share of studies identified as high (red color) hazard score” value was found to be 21%. Moreover, the “share of studies identified as very high (black color) hazard score” value in data set [1] (setting [5]) turned out to be 71%. In addition, the “share of studies identified as yellow hazard score” value in data set [1] (setting [5]) came out at 8%. For the same molecule, the “incidence of EADs” value in data set [1] (first iCell Cardiomyocytes^2 lot (12,012)) was determined as 63%; in data set [1] (second iCell Cardiomyocytes^2 lot), 71%; in data set [2] (3 nM, iCell Cardiomyocytes) it was 65%. Also, the “prolongation of CTD90” value in data set [1] (lot 10,591 (n = 28)) is on record as 330%; in data set [1] (lot 12,012 (n = 144)) it was 305%; in data set [2] (3 nM, lot105091 as printed (n = 20)), 234%.

Consider `O=C1NC(=O)C(c2ccccc2)(c2ccccc2)N1` [Phenytoin], for which the hazard score entry in data set [1] (setting [6]) is reported as “Green”.

Consider `COc1cc2c(cc1OC)CC(=O)N(CCCN(C)C[C@H]1Cc3cc(OC)c(OC)cc31)CC2` [Ivabradine], for which the hazard score result in data set [1] (setting [3]) is given as “low”.

For the molecule `COCCOC(=O)C1=C(C)NC(C)=C(C(=O)OC(C)C)C1c1cccc([N+](=O)[O-])c1` (stereo not drawn) [Nimodipine], the “share of studies identified within the low and high hazard zones” value in data set [1] (300 nM (15-fold fCmax), n = 124 studies) is given as 95%.

Turning to `CC(C)(Oc1ccc(Cl)cc1)C(=O)NC1C2CC3CC1CC(NS(C)(=O)=O)(C3)C2` (stereo not drawn) [JNJ-303], the “effect on hiPSC-CMs (detection in the assay)” value in data set [1] (concentration not given) was “not detected”.

As to `CC(C)NCC(O)c1ccc(NS(C)(=O)=O)cc1` (stereo not drawn) [Sotalol], the “EAD incidence compared to the two lots of iCell-Cardiomyocytes^2 (3 and 10 µM)” value in data set [2] (iCell Cardiomyocytes, 10 µM) is recorded as “much higher”. Regarding `O=C(O)COCCN1CCN(C(c2ccccc2)c2ccc(Cl)cc2)CC1` (stereo not drawn) [Cetirizine], the hazard score entry in data set [1] (1 µM (16-fold the fCmax), numerous studies) is “no hazard”. In the case of `Cc1cccc(C)c1OCC(C)N` (stereo not drawn) [Mexiletine], in data set [1] (100 µM = 67x fCmax), the cessation of beating entry is given as “some cessation of beating” and the hazard score result is given as “Red”. As for `CC(C)NCC(O)COc1ccc(CC(N)=O)cc1` (stereo not drawn) [Atenolol], in data set [1] (setting [4]), the hazard score result is listed as “no hazard”. Take `O=C(Nc1ccc(Oc2ccccc2)cc1)c1cccc([N+](=O)[O-])c1` [ICA-105574]: the “effect on CTD90” value in data set [1] (concentration not given) was “shortened”.

`Cc1cc2c(s1)Nc1ccccc1N=C2N1CCN(C)CC1` [Olanzapine]: in data set [1] (highest tested concentration 100 nM (around fCmax)), the hazard score result is on record as “not found to be with any hazard level”.

For the molecule `CC(C)(C)c1ccc(C(O)CCCN2CCC(C(O)(c3ccccc3)c3ccccc3)CC2)cc1` (stereo not drawn) [terfenadine], in data set [1] (concentration not given), the cessation of beating entry was “caused cessation of beating” and the “effect on CTD90” value is “slightly shortened”. As to `[Ba+2].[Cl-].[Cl-]` [BaCl2], in data set [1] (concentration not given), the “effect on hiPSC-CMs (detection in the assay)” value is recorded as “no effect”. `C[C@H](CS)C(=O)N1CCC[C@H]1C(=O)O` [Captopril]: in data set [1] (setting [4]), the hazard score result was “no hazard”. With `CCC1(c2ccccc2)C(=O)NCNC1=O` [Primidone], the hazard score entry in data set [1] (setting [6]) is given as “Green”.
